Experimental findings from US20120065066A1, “NOVEL HERBICIDES” (SYNGENTA CROP PROTECTION LLC, priority 2009, published 2012) are described below.

Holding throughout (format): in vivo
In test [1] the test system is Alopecurus myosuroides (ALOMY). Briefly: Test Example B, pre-emergence herbicidal test. The note with it: 312 h, evaluated after 13 days, 100=total damage to plant, 0=no damage to plant. The procedure, abridged:
(§1)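 Seeds sown in standard soil and sprayed 1 day after sowing with compound formulated in acetone/water (50:50) with 0.5% Tween 20. Plants grown in a glasshouse at 24/16 °C day/night, 14 h light, 65% humidity. Damage scored after 13 days on a 0–100 scale (100 = total damage).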

Test [2] deals with Avena fatua (AVEFA). Briefly: Test Example B, pre-emergence herbicidal test. The note with it: 312 h, evaluated after 13 days, 100=total damage to plant, 0=no damage to plant. The procedure, abridged:
as §1

Test [3] deals with Echinochloa crus-galli (ECHCG). The experiment in a line: Test Example B, pre-emergence herbicidal test. The conditions noted are these: 312 h, evaluated after 13 days, 100=total damage to plant, 0=no damage to plant. The procedure, abridged: as §1
For test [4], the system named is Setaria faberi (SETFA). Briefly: Test Example B, pre-emergence herbicidal test. The conditions noted are these: 250 g/ha, evaluated after 13 days, 100=total damage to plant, 0=no damage to plant. The procedure, abridged: as §1
Test [5] concerns Alopecurus myosuroides (ALOMY). The experiment in a line: Test Example B, post-emergence herbicidal test. The conditions noted are these: 312 h, evaluated after 13 days, 100=total damage to plant, 0=no damage to plant. The procedure, abridged:
(§2)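 Pot-grown plants were sprayed 8 days after sowing with active ingredient in acetone/water (50:50) containing 0.5% Tween 20. Plants were kept in a glasshouse at 24/16 °C day/night, 14 h light and 65% humidity. Damage was scored 13 days later on a 0–100 scale, where 100 means total damage.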

In test [6] the test system is Avena fatua (AVEFA). The experiment in a line: Test Example B, post-emergence herbicidal test. The conditions noted are these: 312 h, evaluated after 13 days, 100=total damage to plant, 0=no damage to plant. The procedure, abridged:
as §2

Test [7] has as its system Echinochloa crus-galli (ECHCG). The experiment in a line: Test Example B, post-emergence herbicidal test. The conditions noted are these: 312 h, evaluated after 13 days, 100=total damage to plant, 0=no damage to plant. The procedure, abridged:
as §2

For test [8], the system named is Setaria faberi (SETFA). The experiment in a line: Test Example B, post-emergence herbicidal test. The conditions noted are these: 250 g/ha, evaluated after 13 days, 100=total damage to plant, 0=no damage to plant. The procedure, abridged:
as §2

As usually defined, the pest or weed control is the degree to which the test organism was suppressed or injured, in per cent. A high value points to a strong effect. Take `Cc1cc(-c2ccccc2)cc(C)c1C1=C(O)[C@@H]2[C@H](C1=O)[C@@H]1C=C[C@H]2CC1` (racemic) [Compound T56, endo-(3aR,4S,7R,7aS)-2-(3,5-dimethylbiphenyl-4-yl)-3a,4,7,7a-tetrahydro-4,7-ethanoindene-1,3-dione]: the pest or weed control at 250 g/ha is 100% in test [1]; 20% in test [2]; 100% in test [3]; 60% in test [5]; 60% in test [6]; 100% in test [7]. The “SETFA damage to plant” value in test [4] and in test [8] was 100 in each case.
